Laboratory results published in patent US11345725B2, “Bis-thioether stapled peptides as inhibitors of PRC2 function” (Research Foundation of the City University of New York, priority 2019, dated 2022).
Where two headings read alike, the source gives them in different places. Starred links: 1 amine or outer side, 2 acyl side, 3 side chain; linkers in the order of their positions; H or OH if unused. Positions of bridges follow the written chain, without caps; N, C: chain ends. Residues, ends and D or L forms follow the SMILES beside them. X2 = C(CC[*:1])CC[*:2]; X3 = C(CC[*:2])C[*:1]; X1 = C(C[*:1])C[*:2]

Key:
[1] = FIG. 2D
Description: Table printed on a drawing sheet, FIG. 2D
(§1) The patent's description of the figure: FIG. 2A depicts the results of biochemical assays showing structure of the synthesized stapled peptides, and their correspondent helicity and IC50 values for inhibition of H3K27 trimethylation in vitro, as determined by a histone methyltransferase colorimetric assay optimized using endogenous PRC2 extracted from a human clear cell renal carcinoma cell line (Caki-1);
(§2) FIG. 2B depicts a CD spectra of stapled peptides and their linear counterparts measured in water at 20° C.;
FIG. 2C illustrates a plot of H3K27 trimethylation inhibition using the enzymatic in vitro assay described in FIG. 2A, with varying concentrations of 2 (GN-ZB2), positive control GSK126, and using an equimolar combination of both compounds to test their synergistic effects. A summary of the IC50 values for inhibition of H3K27me3 determined from the experiments is also presented. […]
(§3) FIG. 2D show both Chymotrypsin-based proteolytic degradation as well as the plasma assay show remarkable stability of the disclosed i, i+4 and i, i+7 12 bisthioether stapled peptides. The rate of peptide proteolysis was monitored by HPLC and HPLC-MS analysis.
First reader's note: The Assay column joins the peptide number (label) with the matrix (chymotrypsin or plasma, condition); units stand in the cells.

[2] = tested on: endogenous PRC2 extracted from a human clear cell renal carcinoma cell line (Caki-1); assay: IC50 (uM)
Description: Table printed on a drawing sheet, FIG. 2A
Head of the field: IC50 (uM)
as §1, §2
FIG. 2C illustrates a plot of H3K27 trimethylation inhibition using the enzymatic in vitro assay described in FIG. 2A, with varying concentrations of 2 (GN-ZB2), positive control GSK126, and using an equimolar combination of both compounds to test their synergistic effects. A summary of the IC50 values for inhibition of H3K27me3 determined from the experiments is also presented. Calculation of the combination index using the equation described by Chou et al. indicated a marked synergistic effect (CI=0.53) of 2 (GN-ZB2) and GSK126;
as §3
First copying reader's note: IC50 cells hold the value and its ± error together.
Where the first naming reader finds the target: description_of_the_figure: histone methyltransferase colorimetric assay optimized using endogenous PRC2 extracted from a human clear cell renal carcinoma cell line (Caki-1)

[3] = circular dichroism; conditions: deionized water; pH unbuffered; 20 °C; 25 uM
[4] = Circular dichroism (helicity); assay type: physicochemical; conditions: CD in water, 20° C.
Protocol: Circular dichroism spectra were recorded on a CHIRASCAN™ spectrometer. Peptides were dissolved in deionized water, at a concentration of 25 μM. CD signal was monitored at 1 nm intervals from 180 to 260 nm with a 1-mm path quartz cuvette. The data reported is the average of three scans, subtracting the background. The helical content of each peptide was determined using prism 7 software, with molar ellipticity [θ][deg·cm^2dmol^−1] being calculated using the following formula: [θ]=1000000×0/(C×#of residues×l), where θ is the ellipticity read out from Chirascan, C is the concentration of peptide samples in μM, l is the pathlength of the cuvette measured in mm. The percentage helicity was calculated with formula:% Hellicity=100×[θ]222/[θ]max222, where [θ]max222=−31500×[1−([…])].

[5] = Plasma stability test; assay type: in vitro ADME; conditions: human plasma, 37° C.
Protocol: 1 mM stock solution of the corresponded peptide was prepared in PBS buffer (pH 7.4). Next, 50 μL from […] this solution were added to 1 mL of human plasma (Sigma-Aldrich, P9523). The mixture was incubated at 37° C. with mechanical shaking at 300 rpm. Aliquots were withdrawn in portions of 150 μL at different time points for analysis and mixed with 60 μL ACN/EtOH (1:1 v/v) for plasma protein precipitation. After centrifugation at 12000 rpm for 5 min, the supernatant was collected and analyzed by HPLC and HPLC-MS.

[6] = FIG. 5A
Protocol: (§4) Table printed on a drawing sheet, FIG. 5A
(§5) FIG. 5C is a CD spectra of stapled peptides and their linear counterparts measured in water at 20° C.;
(§6) FIG. 5E is a plot of H3K27me3 inhibition obtained in an enzymatic assay using endogenous PRC2 extracted from Caki-1 cells and recombinant PRC2 complex (for compound 11);
First reader's note: Half-life units (min or h) stand in the cells; the compound structures are in the upper table of FIG. 5A.

[7] = tested on: endogenous PRC2 extracted from a human clear cell renal carcinoma cell line (Caki-1); assay: H3K27Me3 Inhibition (% at 1 mM)
Protocol: as §4
Head of the field: H3K27Me3 Inhibition (% at 1 mM)
as §5, §6
First copying reader's note: Half-life units (min or h) stand in the cells; the compound structures are in the upper table of FIG. 5A.
Where the first naming reader finds the target: passage: using as catalytic complex endogenous PRC2 extracted from a human clear cell renal carcinoma cell line (Caki-1)

[8] = biological target: T1, α-chymotrypsin from bovine pancreas type II (Bos taurus, UniProt P00766); assay: Chymotrypsin stability test; assay type: in vitro ADME
T1 construct: freshly prepared α-chymotrypsin from bovine pancreas type II, ≥40 U/mg; purchased; host or cells: bovine pancreas
Protocol: Assays were performed using freshly prepared α-chymotrypsin from bovine pancreas type II, ≥40 U/mg. The enzyme was initially reconstituted in HCl […] (1 μg/μL), and kept in ice until used. Peptides stock solutions were prepared in assay buffer (50 mM Tris.HCl pH=8.0, 560 μM calcium chloride, 0.1% Tween-20) containing <3% of DMSO. The reactions were performed at a 200 μL scale, in assay buffer, at final concentrations of 50 μM for peptide and […] for α-chymotrypsin (10 μL from the reconstitution solution). The mixture was incubated at 37° C. and aliquots were withdrawn in portions of 25 μL at different time points for analysis. The removed aliquots were mixed with 25 μL of water 1% TFA, and then treated with a column for detergent removal following the manufacturer's protocol (Pierce, Catalog #:87776). The rate of peptide proteolysis was monitored by HPLC and HPLC-MS analysis. Control experiments were carried out under the same conditions but using BSA instead of α-chymotrypsin.

[9] = tested on: Caki-1 cells; assay type: cell-based, human
Protocol: All of the cells were grown adherently.
Antiproliferative assays. […] For the following 72h, every 24 h the cell culture media was changed and fresh media containing the compounds was added, 1% DMSO was used as control. After 72h of treatment, both floating and attached cells were collected and analyzed.

CC[C@H](C)[C@@H]1NC(=O)[C@@H](NC(=O)[C@H](CC(=O)O)NC(=O)[C@@H](NC(=O)[C@@H](NC(C)=O)[C@@H](C)O)C(C)C)CSCCCSC[C@@H](C(=O)N[C@@H](CC(C)C)C(=O)N[C@@H](CO)C(=O)N[C@H](C(=O)N[C@@H](CC(C)C)C(=O)N[C@@H](C)C(=O)N[C@@H](CCC(=O)O)C(=O)N[C@@H](CCC(=O)O)C(=O)N[C@H](C(=O)N2CCC[C@H]2C(=O)N[C@@H](CCC(N)=O)C(=O)N[C@@H](CC(N)=O)C(N)=O)C(C)C)C(C)C)NC(=O)[C@H](CO)NC(=O)[C@H](C)NC1=O [2 Plasma] (Ac-TVDCIASCLSVLAEEVPQN-NH2; linker 4-8 via X1)
Half Life [1]: 20.6 h

Ac-TVDKIASA[CSVLAEEC]PQN-CONH2 CH2(CH2)5CH2 (TVDKIASACSVLAEECPQN; N-acetyl, C-amide, heptylene bisthioether staple; Synthetic bisthioether stapled peptide; Compound 5; THIOETH (9)..(16) (CH2)7 linker between residues 9 and 16) [5 | SEQ ID NO: 7]
IC50 [2]: 27.1 ± 1.2 µM

Ac-TVDKIASALSVLAEEVPQN-NH2 [compound 1, reference compound]
helicity [3]: 4.8%
helicity [4]: 4.8%
time to full degradation in plasma [5]: 5 min

CC[C@H](C)[C@H](NC(=O)[C@H](CC(C)C)NC(=O)[C@H](Cc1ccccc1)NC(=O)[C@H](CC(=O)O)NC(=O)[C@H](Cc1c[nH]cn1)NC(=O)[C@H](CCSC)NC(=O)[C@H](CO)NC(=O)[C@@H](NC(=O)[C@@H]1CSCCCSC[C@H](NC(=O)[C@H](CC(N)=O)NC(=O)[C@H](CCCNC(=N)N)NC(=O)[C@H](CS)NC(=O)[C@H](CC(C)C)NC(C)=O)C(=O)N[C@@H](CCSC)C(=O)N[C@@H](CC(C)C)C(=O)N[C@@H](Cc2c[nH]cn2)C(=O)N1)C(C)C)C(N)=O [11 (GN-ZW11), LCRN[CMLHC](CH2)3VSMHDFLI] (Ac-LCRNCMLHCVSMHDFLI-NH2; linker 5-9 via X1)
helicity [3]: 95.1%
Proteolytic Stability (Chymotripsin, t1/2) [6]: 14.4 h
Proteolytic Stability (Plasma, t1/2) [6]: 7.3 h
H3K27Me3 Inhibition (% at 1 mM) [7]: 98.3 % at 1 mM

Ac-TVDKIASA[CSVLAEEC]PQN-CONH2 CH2(CH2)6CH2 (TVDKIASACSVLAEECPQN; N-acetyl, C-amide, octylene bisthioether staple; Synthetic bisthioether stapled peptide; Compound 6; THIOETH (9)..(16) (CH2)8 linker between residues 9 and 16) [6 | SEQ ID NO: 8]
IC50 [2]: 17 ± 1.4 µM

Ac-VINEEYKIWKKNTPFL-NH2 [compound 13, reference compound]
helicity [3]: 16.4%
time to full degradation by chymotrypsin [8]: half an hour
half-life ([8]; bovine, read-out: t1/2 chymotrypsin stability assay (converted)): 0.5 h

CC[C@H](C)[C@@H]1NC(=O)[C@@H](NC(=O)[C@H](CC(=O)O)NC(=O)[C@@H](NC(=O)[C@@H](NC(C)=O)[C@@H](C)O)C(C)C)CSCCCSC[C@@H](C(=O)N[C@@H](CC(C)C)C(=O)N[C@@H](CO)C(=O)N[C@H](C(=O)N[C@@H](CC(C)C)C(=O)N[C@@H](C)C(=O)N[C@@H](CCC(=O)O)C(=O)N[C@@H](CCC(=O)O)C(=O)N[C@H](C(=O)N2CCC[C@H]2C(=O)N[C@@H](CCC(N)=O)C(=O)N[C@@H](CC(N)=O)C(N)=O)C(C)C)C(C)C)NC(=O)[C@H](CO)NC(=O)[C@H](C)NC1=O [2 (GN-ZB2), TVD[CIASC](CH2)3LSVLAEEVPQN] (Ac-TVDCIASCLSVLAEEVPQN-NH2; linker 4-8 via X1; C-terminus assumed)
IC50 ([9]; 72 h): 0.25 ± 0.03 µM
stability in plasma [5]: high resistance to proteolysis

CC[C@H](C)[C@@H]1NC(=O)[C@@H](NC(=O)[C@H](CC(=O)O)NC(=O)[C@@H](NC(=O)[C@@H](NC(C)=O)[C@@H](C)O)C(C)C)CSCCCSC[C@@H](C(=O)N[C@@H](CC(C)C)C(=O)N[C@@H](CO)C(=O)N[C@H](C(=O)N[C@@H](CC(C)C)C(=O)N[C@@H](C)C(=O)N[C@@H](CCC(=O)O)C(=O)N[C@@H](CCC(=O)O)C(=O)N[C@H](C(=O)N2CCC[C@H]2C(=O)N[C@@H](CCC(N)=O)C(=O)N[C@@H](CC(N)=O)C(N)=O)C(C)C)C(C)C)NC(=O)[C@H](CO)NC(=O)[C@H](C)NC1=O [2 Chymotrypsin] (Ac-TVDCIASCLSVLAEEVPQN-NH2; linker 4-8 via X1)
Half Life [1]: 40.9 h

CC[C@H](C)n1cc(C)c2c(C(=O)NCc3c(C)cc(C)[nH]c3=O)cc(-c3ccc(N4CCNCC4)nc3)cc21 [GSK126]
IC50 ([9]; Caki-1 cells, 72h daily treatment, colorimetric method, read-out: IC50 cell proliferation): 0.15 ± 0.06 µM
effect on cell proliferation ([9]; Caki-1 cells, 72h of daily treatment): significantly inhibits cell proliferation

Ac-TVDKIASA[CSVLAEEC]PQN-CONH2 CH2(CH2)4CH2 (TVDKIASACSVLAEECPQN; N-acetyl, C-amide, hexylene bisthioether staple; Synthetic bisthioether stapled peptide; compound 4; THIOETH (9)..(16) (CH2)6 linker between residues 9 and 16) [4 | SEQ ID NO: 6]
IC50 [2]: 10.1 ± 1.1 µM

CC[C@H](C)[C@H](NC(=O)[C@@H]1CSCCCCCSC[C@H](NC(=O)[C@@H](NC(=O)[C@@H](NC(C)=O)C(C)C)[C@@H](C)CC)C(=O)N[C@@H](CCC(=O)O)C(=O)N[C@@H](CCC(=O)O)C(=O)N[C@@H](Cc2ccc(O)cc2)C(=O)N1)C(=O)N[C@@H](Cc1c[nH]c2ccccc12)C(=O)N[C@@H](CCCCN)C(=O)N[C@@H](CCCCN)C(=O)N[C@@H](CC(N)=O)C(=O)N[C@H](C(=O)N1CCC[C@H]1C(=O)N[C@@H](Cc1ccccc1)C(=O)N[C@@H](CC(C)C)C(N)=O)[C@@H](C)O (Ac-VICEEYCIWKKNTPFL-NH2; linker 3-7 via X2)
helicity [3]: 11%

CC[C@H](C)[C@@H]1NC(=O)[C@@H](NC(=O)[C@H](Cc2ccc(O)cc2)NC(=O)[C@H](CCC(=O)O)NC(=O)[C@H](CCC(=O)O)NC(=O)[C@H](CC(N)=O)NC(=O)[C@@H](NC(=O)[C@@H](NC(C)=O)C(C)C)[C@@H](C)CC)CSCCCCSC[C@@H](C(=O)N[C@@H](CC(N)=O)C(=O)N[C@H](C(=O)N2CCC[C@H]2C(=O)N[C@@H](Cc2ccccc2)C(=O)N[C@@H](CC(C)C)C(N)=O)[C@@H](C)O)NC(=O)[C@H](CCCCN)NC(=O)[C@H](Cc2c[nH]c3ccccc23)NC1=O (Ac-VINEEYCIWKCNTPFL-NH2; linker 7-11 via X3)
helicity [3]: 16.5%
